Measured values from patent US20160022694A1, “A Method of Improving the Efficiency of Beef Production from Bovine Animals” (INTERVET INTERNATIONAL B.V., priority 2013, published 2016).
Marks after values point to notes of the source that are not given here.

Columns and labels:
[1] = system: finishing steers; experiment: Feedlot growth performance study: component feeding vs continuous feeding of Zilmax; assay type: in vivo, cattle; settings: for Final body weight: 20 days, LS mean
Description: A multi-center, randomized complete block design was used. Four study sites enrolled 800 to 1000 head of cattle each. Cattle were randomized to 10 blocks of 80 to 100 head based on body weight, then penned in groups of 16 to 20 head per pen. Finishing steers that were visually estimated to be approximately 58 days from finish were used in the studies. Each site enrolled 800 to 1000 head of cattle. Cattle were randomized to 10 blocks of 80 to 100 head and, within block, to treatment group based on body weight. Study pens consisted of 16 to 20 head per pen. The study was broken into three periods: acclimation, Zilmax® treatment and withdrawal. Between study sites, the number of acclimation days was variable but the Zilmax feeding period was 20 days at all study sites. The withdrawal period ranged from 3 to 5 days across the sites. More than one start time was allowed to accommodate enrollment of the study animals. If blocks were initiated at different times, blocks may have been acclimated for different lengths of time. The minimum length of the acclimation period was 31 days. All animals were permitted ad libitum feed consumption according to standard study site procedure. Feed delivery occurred twice daily. Daily feed issue was recorded on a per pen basis from the start of the acclimation period and until final weights were measured before shipment for harvest. Feed batching and delivery were documented. A component feeding method was tested in the studies by thoroughly mixing the daily zilpaterol dose in the first feeding of the Type C feed prior to delivery to the animal for Groups 2, 3 and 4. […] The daily component feed amount (i.e., the first feeding each day of the Type C feed) was set at approximately 10 lb of feed dry matter (DM) per head to simulate commercial practice for component feeding. Therefore, all study pens were fed approximately 10 lb of DM per head in the first feeding of the day. Control steers were fed the Type C feed that contained no Zilmax. The component feeding treatment groups were fed the Type C feed that contained 60, 75, or 90 mg/head/day. All cattle in the control and three component feeding treatments were fed the non-medicated Type C complete feed (i.e., without Zilmax®) in a second feeding each day. Steers in the 6.8 g/ton Zilmax® treatment group received the Type C complete feed containing this level of Zilmax® in both feedings each day during the 20-day Zilmax® feeding period. Individual animal weights were measured prior to the start of the Acclimation period for use in randomization of animals to treatment groups and pens. The Acclimation period was used to stabilize feed intake and behavioral aspects of the newly sorted pen groups of cattle prior to feeding Zilmax®. Individual weights were measured and unconsumed feed was removed from the feed bunks and weighed on the day of initiation of Zilmax® feeding. After a 20-day Zilmax® feeding period, unconsumed feed was removed from the feed bunks, weighed, and discarded. All animals in the five treatment groups were fed a non-medicated feed (i.e., without Zilmax®) for a minimum 3 day withdrawal period prior to harvest. Unconsumed feed remaining in the feed bunks was removed and weighed on the day of final body weight measurement. Cattle were handled throughout the study using procedures which were typical of commercial practices. Cattle were exposed to ambient weather conditions during the studies. Feed was not restricted prior to weighing or harvest. The primary variables in this study were average daily body weight gain (ADG) and feed efficiency (FE) calculated for the Zilmax® feeding period of the study (Day 0 through end of withdrawal period) and for the entire study (start of the acclimation period to end of withdrawal period). ADG was calculated as a pen average from the ADG of individual animals within the pen using the equation: ADG=(final body weight−Day 0 body weight)/(number of days between the body weight measurements). […]

[2] = system: finishing steers; experiment: Secondary (carcass) variables after Zilmax component or continuous feeding; assay type: in vivo, cattle; settings: for Marbling Score: 400-699 = choice
Description: A multi-center, randomized complete block design was used. Four study sites enrolled 800 to 1000 head of cattle each. Cattle were randomized to 10 blocks of 80 to 100 head based on body weight, then penned in groups of 16 to 20 head per pen. Finishing steers that were visually estimated to be approximately 58 days from finish were used in the studies. Each site enrolled 800 to 1000 head of cattle. Cattle were randomized to 10 blocks of 80 to 100 head and, within block, to treatment group based on body weight. Study pens consisted of 16 to 20 head per pen. A component feeding method was tested in the studies by thoroughly mixing the daily zilpaterol dose in the first feeding of the Type C feed prior to delivery to the animal for Groups 2, 3 and 4. […] The daily component feed amount (i.e., the first feeding each day of the Type C feed) was set at approximately 10 lb of feed dry matter (DM) per head to simulate commercial practice for component feeding. Therefore, all study pens were fed approximately 10 lb of DM per head in the first feeding of the day. Control steers were fed the Type C feed that contained no Zilmax. The component feeding treatment groups were fed the Type C feed that contained 60, 75, or 90 mg/head/day. All cattle in the control and three component feeding treatments were fed the non-medicated Type C complete feed (i.e., without Zilmax®) in a second feeding each day. Steers in the 6.8 g/ton Zilmax® treatment group received the Type C complete feed containing this level of Zilmax® in both feedings each day during the 20-day Zilmax® feeding period. DMI was calculated for the two study periods (start of the acclimation period or Day 0 to the end of the withdrawal period). The following carcass data were collected or calculated: marbling score, USDA quality grade or equivalent, hot carcass weight, ribeye area, backfat thickness (preliminary yield grade and adjusted preliminary yield grade), and USDA yield grade or equivalent. Dressing percent was calculated. Variables continuous in nature were subjected to the analysis described for the primary outcome variables. Outcomes evaluated included: initial body weight, final body weight, weight gain (Day 0 to final date), ADG (acclimation period, initial date to final date), ADG (shrunk, Day 0 to final date and initial date to final date), DMI (acclimation, initial date to final date), as fed intake (Zilmax® period), carcass gain (Day 0 to final date), dressing percent, hot carcass weight, marbling score, fat depth, ribeye area, percent KPH and calculated yield grade. The following carcass data were collected or calculated: marbling score, USDA quality grade or equivalent, hot carcass weight, ribeye area, backfat thickness, calculated yield grade, kidney-pelvic-heart fat percentage, and USDA yield grade or equivalent. The Canadian study site CBGA quality and yield grades were converted to USDA equivalents prior to analysis. Dressing percent was calculated.

[3] = Acclimation to End of Withdrawal (entire study)
[4] = Entire Study (55 to 82 days), component feeding 60 mg/hd/day
[5] = Entire Study (55 to 82 days), component feeding 75 mg/hd/day
[6] = Entire Study (55 to 82 days), component feeding 90 mg/hd/day
[7] = Entire Study (55 to 82 days), continuous 6.8 g/ton
[8] = Zilmax and Withdrawal Period, all treated groups
[9] = Zilmax and Withdrawal Periods (23 to 25 days), component feeding 60 mg/hd/day
[10] = Zilmax and Withdrawal Periods (23 to 25 days), component feeding 75 mg/hd/day
[11] = Zilmax and Withdrawal Periods (23 to 25 days), component feeding 90 mg/hd/day
[12] = Zilmax and Withdrawal Periods (23 to 25 days), continuous 6.8 g/ton

Structure (SMILES): CC(C)NC1CCn2c(=O)[nH]c3cccc(c32)C1O (centres unmarked) [Zilmax, 4,5,6,7-tetrahydro-7-hydroxy-6-(isopropylamino) imidazo[4,5,1-jk]-[1]benzazepin-2(1H)-one]
- ADG, component feeding groups vs continuous feeding group [1, 3]: No differences
- ADG, treated groups compared to the control group [1, 3]: significantly higher
- FE, component feeding groups vs continuous feeding group [1, 3]: No differences
- FE, treated groups compared to the control group [1, 3]: significantly lower
- DMI, among the treatment groups ([1]; Acclimation to End of Withdrawal (entire study), P>0.51): No differences
- ADG [1, 4]: 4.14* lb/head/day
- DMI [1, 4]: 22.71 lb/head/day
- FE (Feed / Gain) [1, 4]: 5.64*
- ADG [1, 5]: 4.12* lb/head/day
- DMI [1, 5]: 22.75 lb/head/day
- FE (Feed / Gain) [1, 5]: 5.65*
- ADG [1, 6]: 4.13* lb/head/day
- DMI [1, 6]: 22.65 lb/head/day
- FE (Feed / Gain) [1, 6]: 5.62*
- ADG [1, 7]: 4.19* lb/head/day
- DMI [1, 7]: 22.93 lb/head/day
- FE (Feed / Gain) [1, 7]: 5.64*
- ADG, component feeding groups vs continuous feeding group ([1]; Zilmax and Withdrawal Period): No differences
- DMI, component feeding groups compared to the control group ([1]; Zilmax and Withdrawal Period): significantly lower
- DMI, continuous feeding group vs control group ([1]; Zilmax and Withdrawal Period): no significant difference
- FE, component feeding groups vs continuous feeding group ([1]; Zilmax and Withdrawal Period): No differences
- ADG, treated groups compared to the control group [1, 8]: significantly higher
- FE, treated groups compared to the control group [1, 8]: significantly lower
- ADG [1, 9]: 4.13*^(c) lb/head/day
- DMI [1, 9]: 22.57* lb/head/day
- FE (Feed / Gain) [1, 9]: 5.89*
- ADG [1, 10]: 3.99* lb/head/day
- DMI [1, 10]: 22.70* lb/head/day
- FE (Feed / Gain) [1, 10]: 5.99*
- ADG [1, 11]: 3.97* lb/head/day
- DMI [1, 11]: 22.39* lb/head/day
- FE (Feed / Gain) [1, 11]: 6.10*
- ADG [1, 12]: 4.23* lb/head/day
- DMI [1, 12]: 22.87 lb/head/day
- FE (Feed / Gain) [1, 12]: 5.96*
- Final body weight ([1]; component feeding 60 mg/hd/day): 1463 lb/head
- Final body weight ([1]; component feeding 75 mg/hd/day): 1459 lb/head
- Final body weight ([1]; component feeding 90 mg/hd/day): 1461 lb/head
- Final body weight ([1]; fed continuously 6.8 g/ton (90% DMB)): 1467 lb/head
- Backfat thickness, among the treatment groups ([2]; P>0.19): no significant differences
- Kidney-pelvic-heart fat percentage, among the treatment groups ([2]; P>0.19): no significant differences
- USDA quality grade, among the treatment groups ([2]; P>0.19): no significant differences
- Calculated yield grade, Zilmax treated groups compared to the control group ([2]; all treated groups): significantly lower
- Dressing percentage, Zilmax treated groups compared to the control group ([2]; all treated groups): significantly higher
- Hot carcass weight, Zilmax treated groups compared to the control group ([2]; all treated groups): significantly higher
- Marbling score, Zilmax treated groups compared to the control group ([2]; all treated groups): significantly lower
- Rib eye area, Zilmax treated groups compared to the control group ([2]; all treated groups): significantly higher
- USDA yield grade score, Zilmax treated groups compared to the control group ([2]; all treated groups): significantly lower
- Calculated yield grade, component feeding groups vs continuous feeding group ([2]; bovine, in vivo): no differences
- Dressing percentage, component feeding groups vs continuous feeding group ([2]; bovine, in vivo): no differences
- Hot carcass weight, component feeding groups vs continuous feeding group ([2]; bovine, in vivo): no differences
- Marbling score, component feeding groups vs continuous feeding group ([2]; bovine, in vivo): no differences
- Rib eye area, component feeding groups vs continuous feeding group ([2]; bovine, in vivo): no differences
- USDA yield grade score, component feeding groups vs continuous feeding group ([2]; bovine, in vivo): no differences
- Backfat Thickness ([2]; component feeding 60 mg/hd/day): 0.49 inches
- Calculated Yield Grade ([2]; component feeding 60 mg/hd/day): 2.81*
- Dressing % (using final body weight shrunk 4%) ([2]; component feeding 60 mg/hd/day): 63.89* %
- Hot Carcass Weight ([2]; component feeding 60 mg/hd/day): 904* lb/head
- Kidney-Pelvic-Heart fat ([2]; component feeding 60 mg/hd/day): 2.27%
- Ribeye Area ([2]; component feeding 60 mg/hd/day): 15.14* sq. inches
- USDA Yield Grade ([2]; component feeding 60 mg/hd/day): 2.19*
- Marbling Score ([2]; component feeding 60 mg/hd/day): 453*
- Backfat Thickness ([2]; component feeding 75 mg/hd/day): 0.48 inches
- Calculated Yield Grade ([2]; component feeding 75 mg/hd/day): 2.82*
- Dressing % (using final body weight shrunk 4%) ([2]; component feeding 75 mg/hd/day): 64.00* %
- Hot Carcass Weight ([2]; component feeding 75 mg/hd/day): 902* lb/head
- Kidney-Pelvic-Heart fat ([2]; component feeding 75 mg/hd/day): 2.26%
- Ribeye Area ([2]; component feeding 75 mg/hd/day): 15.07* sq. inches
- USDA Yield Grade ([2]; component feeding 75 mg/hd/day): 2.19*
- Marbling Score ([2]; component feeding 75 mg/hd/day): 460*
- Backfat Thickness ([2]; component feeding 90 mg/hd/day): 0.49 inches
- Calculated Yield Grade ([2]; component feeding 90 mg/hd/day): 2.79*
- Dressing % (using final body weight shrunk 4%) ([2]; component feeding 90 mg/hd/day): 64.06* %
- Hot Carcass Weight ([2]; component feeding 90 mg/hd/day): 905* lb/head
- Kidney-Pelvic-Heart fat ([2]; component feeding 90 mg/hd/day): 2.26%
- Ribeye Area ([2]; component feeding 90 mg/hd/day): 15.20* sq. inches
- USDA Yield Grade ([2]; component feeding 90 mg/hd/day): 2.18*
- Marbling Score ([2]; component feeding 90 mg/hd/day): 456*
- Backfat Thickness ([2]; continuous 6.8 g/ton): 0.49 inches
- Calculated Yield Grade ([2]; continuous 6.8 g/ton): 2.83*
- Dressing % (using final body weight shrunk 4%) ([2]; continuous 6.8 g/ton): 64.08* %
- Hot Carcass Weight ([2]; continuous 6.8 g/ton): 908* lb/head
- Kidney-Pelvic-Heart fat ([2]; continuous 6.8 g/ton): 2.27%
- Ribeye Area ([2]; continuous 6.8 g/ton): 15.14* sq. inches
- USDA Yield Grade ([2]; continuous 6.8 g/ton): 2.19*
- Marbling Score ([2]; continuous 6.8 g/ton): 457*
